Consider 6 molecules from ChEMBL document CHEMBL5465560, “Selectivity Literature for EUbOPEN Chemogenomic Library” (2024).

Experiment [1] addresses T1, Cyclin-G-associated kinase (Homo sapiens) (UniProt O14976).
T1 sequence (whole entry): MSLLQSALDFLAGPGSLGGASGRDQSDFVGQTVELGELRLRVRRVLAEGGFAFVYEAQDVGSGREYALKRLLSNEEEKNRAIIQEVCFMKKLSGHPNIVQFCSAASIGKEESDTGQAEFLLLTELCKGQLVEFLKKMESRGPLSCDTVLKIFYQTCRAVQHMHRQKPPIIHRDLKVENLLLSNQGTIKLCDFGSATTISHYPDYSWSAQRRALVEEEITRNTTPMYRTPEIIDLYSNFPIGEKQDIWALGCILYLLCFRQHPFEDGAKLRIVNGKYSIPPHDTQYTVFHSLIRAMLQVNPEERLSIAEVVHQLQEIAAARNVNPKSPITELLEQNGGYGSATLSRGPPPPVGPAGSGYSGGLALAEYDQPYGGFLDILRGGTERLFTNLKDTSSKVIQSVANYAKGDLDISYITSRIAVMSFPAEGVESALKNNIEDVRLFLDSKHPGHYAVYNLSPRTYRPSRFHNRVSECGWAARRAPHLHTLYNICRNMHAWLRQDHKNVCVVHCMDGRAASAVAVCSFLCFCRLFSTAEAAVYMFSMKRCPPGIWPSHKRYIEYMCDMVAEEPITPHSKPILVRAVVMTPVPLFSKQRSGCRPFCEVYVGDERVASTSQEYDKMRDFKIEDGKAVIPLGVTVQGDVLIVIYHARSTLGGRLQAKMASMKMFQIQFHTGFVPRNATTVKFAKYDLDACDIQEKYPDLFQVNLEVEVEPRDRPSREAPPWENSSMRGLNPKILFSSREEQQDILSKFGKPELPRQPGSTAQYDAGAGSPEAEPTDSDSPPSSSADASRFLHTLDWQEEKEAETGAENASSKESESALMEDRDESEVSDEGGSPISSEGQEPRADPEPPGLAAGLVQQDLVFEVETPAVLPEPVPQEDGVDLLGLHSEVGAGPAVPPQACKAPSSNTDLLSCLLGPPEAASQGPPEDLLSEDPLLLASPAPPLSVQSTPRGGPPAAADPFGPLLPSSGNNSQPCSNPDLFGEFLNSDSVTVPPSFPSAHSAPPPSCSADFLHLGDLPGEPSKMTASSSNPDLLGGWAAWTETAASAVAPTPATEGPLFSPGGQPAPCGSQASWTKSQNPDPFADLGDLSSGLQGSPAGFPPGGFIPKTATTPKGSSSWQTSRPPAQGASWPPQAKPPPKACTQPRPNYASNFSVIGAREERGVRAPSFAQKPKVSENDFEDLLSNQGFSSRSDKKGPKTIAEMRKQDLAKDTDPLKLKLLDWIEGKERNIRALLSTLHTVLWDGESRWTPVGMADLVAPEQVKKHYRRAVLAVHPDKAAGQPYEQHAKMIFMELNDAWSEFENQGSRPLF
In words: Selectivity interaction (Kinase panel (DSF assay)) EUB0001558a GAK.

For experiment [2], the target named is Beta-1 adrenergic receptor (Homo sapiens, UniProt P08588). In words: Selectivity interaction (Eurofins CEREP Diversity Profile (receptors and ion channels)) EUB0000279b ADRB1. The settings on record: at 10 µM.
Experiment [3] has as its target T2, Histone-lysine N-methyltransferase SUV39H1 (Homo sapiens) (UniProt O43463).
T2 sequence (whole entry): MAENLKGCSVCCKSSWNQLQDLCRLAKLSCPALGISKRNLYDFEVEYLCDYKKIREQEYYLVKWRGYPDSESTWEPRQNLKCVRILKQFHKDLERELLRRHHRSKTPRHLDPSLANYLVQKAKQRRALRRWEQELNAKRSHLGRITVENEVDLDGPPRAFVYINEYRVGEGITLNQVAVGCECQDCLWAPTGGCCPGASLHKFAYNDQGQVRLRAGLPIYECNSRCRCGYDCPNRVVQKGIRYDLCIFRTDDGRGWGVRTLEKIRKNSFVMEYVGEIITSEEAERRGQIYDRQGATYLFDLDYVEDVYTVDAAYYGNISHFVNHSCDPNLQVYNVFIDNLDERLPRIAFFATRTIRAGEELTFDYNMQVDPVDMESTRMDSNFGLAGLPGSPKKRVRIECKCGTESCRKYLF
The settings on record: at 10 µM.

Experiment [4] addresses Macrophage-stimulating protein receptor (Homo sapiens, UniProt Q04912). In words: Selectivity interaction (KinomeScan (DiscoverX)) EUB0000607a MST1R. The settings on record: at 10 µM.
Experiment [5] deals with Serine/threonine-protein kinase MARK2 (Homo sapiens) (UniProt Q7KZI7). In words: Selectivity interaction (ActivX KiNativ screen (kinase selectivity in THP-1 cell lysates)) EUB0000639a MARK2. The class given is subcellular. The settings on record: lysate.
Experiment [6] has as its target Calcium/calmodulin-dependent protein kinase type 1 (Homo sapiens) (UniProt Q14012). Put plainly: Selectivity interaction (KinomeScan (DiscoverX)) EUB0000229b CAMK1. Conditions: at 10 µM.

Chain of Serine/threonine-protein kinase MARK2 (Homo sapiens) (Q7KZI7 whole entry): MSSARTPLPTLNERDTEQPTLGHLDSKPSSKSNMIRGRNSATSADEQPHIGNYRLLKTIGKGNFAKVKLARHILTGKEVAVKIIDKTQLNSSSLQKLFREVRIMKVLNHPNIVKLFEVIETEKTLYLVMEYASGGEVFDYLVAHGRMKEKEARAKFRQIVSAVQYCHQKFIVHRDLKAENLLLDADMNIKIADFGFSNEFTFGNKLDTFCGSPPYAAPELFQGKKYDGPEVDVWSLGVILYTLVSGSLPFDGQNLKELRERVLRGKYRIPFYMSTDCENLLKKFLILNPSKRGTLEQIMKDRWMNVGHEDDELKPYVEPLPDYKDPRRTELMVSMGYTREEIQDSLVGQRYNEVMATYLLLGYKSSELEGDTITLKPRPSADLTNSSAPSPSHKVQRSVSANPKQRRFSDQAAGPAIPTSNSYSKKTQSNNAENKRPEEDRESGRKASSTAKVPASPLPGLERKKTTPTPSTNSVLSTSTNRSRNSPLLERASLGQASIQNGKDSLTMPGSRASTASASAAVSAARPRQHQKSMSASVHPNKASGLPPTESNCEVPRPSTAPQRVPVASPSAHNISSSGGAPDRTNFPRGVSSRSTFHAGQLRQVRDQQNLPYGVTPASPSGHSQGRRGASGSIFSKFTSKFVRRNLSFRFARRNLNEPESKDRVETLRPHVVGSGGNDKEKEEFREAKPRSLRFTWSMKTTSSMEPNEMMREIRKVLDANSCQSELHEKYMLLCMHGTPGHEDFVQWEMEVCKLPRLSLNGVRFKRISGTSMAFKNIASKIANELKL
Chain of Beta-1 adrenergic receptor (P08588 whole entry, looked up): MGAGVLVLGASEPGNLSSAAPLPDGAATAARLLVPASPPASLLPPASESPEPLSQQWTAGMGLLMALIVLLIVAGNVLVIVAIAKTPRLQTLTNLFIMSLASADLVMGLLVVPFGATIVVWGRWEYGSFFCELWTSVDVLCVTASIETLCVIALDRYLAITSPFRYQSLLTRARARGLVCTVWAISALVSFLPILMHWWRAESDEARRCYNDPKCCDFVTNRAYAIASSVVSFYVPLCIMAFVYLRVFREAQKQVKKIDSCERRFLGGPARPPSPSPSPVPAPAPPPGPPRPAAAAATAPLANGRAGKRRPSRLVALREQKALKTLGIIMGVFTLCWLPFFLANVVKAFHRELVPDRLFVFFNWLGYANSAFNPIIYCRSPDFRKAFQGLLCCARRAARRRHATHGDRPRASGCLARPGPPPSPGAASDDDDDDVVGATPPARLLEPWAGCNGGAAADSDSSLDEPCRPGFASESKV
Chain of Macrophage-stimulating protein receptor (Q04912 25-304 limits assumed): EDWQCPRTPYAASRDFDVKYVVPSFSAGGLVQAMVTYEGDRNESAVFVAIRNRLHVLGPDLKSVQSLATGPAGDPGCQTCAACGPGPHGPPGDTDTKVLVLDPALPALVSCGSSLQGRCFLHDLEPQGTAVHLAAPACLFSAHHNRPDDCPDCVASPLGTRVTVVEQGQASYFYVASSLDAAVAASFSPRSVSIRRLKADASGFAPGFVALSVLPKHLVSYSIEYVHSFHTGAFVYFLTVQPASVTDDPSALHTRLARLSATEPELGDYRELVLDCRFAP
Chain of Macrophage-stimulating protein receptor (Q04912 310-1400 limits assumed): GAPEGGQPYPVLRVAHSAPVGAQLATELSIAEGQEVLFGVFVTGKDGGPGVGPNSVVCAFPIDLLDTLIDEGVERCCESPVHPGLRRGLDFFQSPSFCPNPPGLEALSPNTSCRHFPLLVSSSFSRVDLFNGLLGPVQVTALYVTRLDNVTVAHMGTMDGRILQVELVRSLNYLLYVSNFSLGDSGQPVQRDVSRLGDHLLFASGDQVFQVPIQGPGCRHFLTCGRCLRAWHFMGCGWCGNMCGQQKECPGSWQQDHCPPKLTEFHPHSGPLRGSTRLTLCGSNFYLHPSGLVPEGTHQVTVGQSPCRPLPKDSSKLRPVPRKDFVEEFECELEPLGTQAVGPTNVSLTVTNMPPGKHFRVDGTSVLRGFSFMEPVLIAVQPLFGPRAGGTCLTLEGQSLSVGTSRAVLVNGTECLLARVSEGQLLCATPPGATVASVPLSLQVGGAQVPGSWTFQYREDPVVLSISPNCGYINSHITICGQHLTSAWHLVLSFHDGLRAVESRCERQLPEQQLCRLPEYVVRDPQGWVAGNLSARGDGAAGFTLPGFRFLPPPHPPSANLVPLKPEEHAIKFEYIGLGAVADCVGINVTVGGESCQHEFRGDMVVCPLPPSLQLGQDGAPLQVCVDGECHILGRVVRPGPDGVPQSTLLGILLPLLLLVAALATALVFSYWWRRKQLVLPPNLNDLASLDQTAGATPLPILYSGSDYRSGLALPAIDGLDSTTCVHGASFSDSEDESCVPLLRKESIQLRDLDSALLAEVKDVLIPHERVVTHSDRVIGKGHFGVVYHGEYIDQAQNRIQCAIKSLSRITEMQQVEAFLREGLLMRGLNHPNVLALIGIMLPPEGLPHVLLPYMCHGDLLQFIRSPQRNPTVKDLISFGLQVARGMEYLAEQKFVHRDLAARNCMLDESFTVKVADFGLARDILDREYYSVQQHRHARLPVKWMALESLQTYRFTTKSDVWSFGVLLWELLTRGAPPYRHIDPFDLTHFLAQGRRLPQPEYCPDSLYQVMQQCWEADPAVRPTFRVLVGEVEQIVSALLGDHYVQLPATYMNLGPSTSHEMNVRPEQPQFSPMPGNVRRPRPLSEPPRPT
Chain of Calcium/calmodulin-dependent protein kinase type 1 (Homo sapiens) (Q14012 whole entry, looked up): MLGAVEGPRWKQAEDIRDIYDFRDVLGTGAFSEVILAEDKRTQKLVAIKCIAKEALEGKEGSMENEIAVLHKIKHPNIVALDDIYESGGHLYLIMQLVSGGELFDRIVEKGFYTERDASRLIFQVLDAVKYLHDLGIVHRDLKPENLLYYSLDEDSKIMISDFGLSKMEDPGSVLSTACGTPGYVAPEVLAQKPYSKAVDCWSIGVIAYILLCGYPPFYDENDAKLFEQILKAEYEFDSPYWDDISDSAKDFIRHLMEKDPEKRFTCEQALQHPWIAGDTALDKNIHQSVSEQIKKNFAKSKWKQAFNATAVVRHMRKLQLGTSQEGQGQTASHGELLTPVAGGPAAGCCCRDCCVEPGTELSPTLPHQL

`CC(C)(O)[C@H](F)CN1Cc2cc(NC(=O)c3cnn4cccnc34)c(N3CCOCC3)cc2C1=O` returned a dTM in experiment [1] of 2.3 K.
Take `CC(=O)c1cc(-c2ccccc2OCC2CC2)c2ncccn12`: the % of control in experiment [2] was 87%.
In experiment [3], `CNCCN1CCC(c2cc(CN(C)C(=O)c3cccc(Oc4ccccc4)c3)ccn2)CC1` gave a % activity of over 90%.
`CNC(=O)Nc1ccc(-c2nc(N3CC4CCC(C3)O4)c3cnn(C4CCC5(CC4)OCCO5)c3n2)cc1`: the % of control in experiment [4] worked out at 100%.
In the case of `CC[C@@H]1[C@H](F)C(=O)N[C@@H]1COc1nccc2cc(C(N)=O)c(OC)cc12` [ZIMLOVISERTIB], the % of inhibition in experiment [5] (at 0.01 µM) is -8%; in experiment [5] (at 0.04 µM), 6.9%; in experiment [5] (at 0.2 µM), 9.9%; in experiment [5] (at 1 µM), 30%; in experiment [5] (at 5 µM) it was 56.3%.
For `COc1cc(N(C)c2ccnc3ccc(C(F)(F)F)cc23)cc(OC)c1OC`, in experiment [6], the % binding was 59%.
